In ChEMBL document CHEMBL1131988, “Synthesis, SAR and in vivo activity of novel thienopyridine sulfonamide pyrrolidinones as factor Xa inhibitors” (Bioorg Med Chem Lett, 1999) one finds Ki and IC50 data, which are given here for 28 compounds.

Molecules are shown by their SMILES.

One assay has as its target Serine protease 1 (Homo sapiens, UniProt P07477). Briefly: Binding affinity against trypsin.
The target of assay [1] is T1, Coagulation factor X (Homo sapiens, UniProt P00742). Briefly: Binding affinity against serine protease factor Xa (fXa).
T1 sequence (P00742 41-179 limits assumed): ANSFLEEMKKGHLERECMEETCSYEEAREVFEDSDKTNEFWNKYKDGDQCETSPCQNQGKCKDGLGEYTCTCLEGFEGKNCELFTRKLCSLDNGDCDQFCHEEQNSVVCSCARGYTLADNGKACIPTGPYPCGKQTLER
T1 sequence (P00742 235-488 limits assumed): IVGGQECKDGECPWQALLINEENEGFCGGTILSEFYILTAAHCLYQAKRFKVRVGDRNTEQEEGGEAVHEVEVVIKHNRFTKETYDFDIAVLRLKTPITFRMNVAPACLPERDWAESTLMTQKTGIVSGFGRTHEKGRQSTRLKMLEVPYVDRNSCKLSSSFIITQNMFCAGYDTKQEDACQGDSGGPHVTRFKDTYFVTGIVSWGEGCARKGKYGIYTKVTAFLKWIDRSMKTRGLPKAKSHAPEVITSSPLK
The next assay concerns the target Prothrombin (Homo sapiens, UniProt P00734). The assay can be described thus: Binding affinity against thrombin.
In assay [2] the target is T1, Coagulation factor X. The assay can be described thus: Binding affinity against serine protease Coagulation factor X.
The target in assay [3] is Tissue-type plasminogen activator (Homo sapiens, UniProt P00750). Briefly: Binding affinity against tissue plasminogen activator (t-Pa).
Chain of Tissue-type plasminogen activator (P00750 whole entry): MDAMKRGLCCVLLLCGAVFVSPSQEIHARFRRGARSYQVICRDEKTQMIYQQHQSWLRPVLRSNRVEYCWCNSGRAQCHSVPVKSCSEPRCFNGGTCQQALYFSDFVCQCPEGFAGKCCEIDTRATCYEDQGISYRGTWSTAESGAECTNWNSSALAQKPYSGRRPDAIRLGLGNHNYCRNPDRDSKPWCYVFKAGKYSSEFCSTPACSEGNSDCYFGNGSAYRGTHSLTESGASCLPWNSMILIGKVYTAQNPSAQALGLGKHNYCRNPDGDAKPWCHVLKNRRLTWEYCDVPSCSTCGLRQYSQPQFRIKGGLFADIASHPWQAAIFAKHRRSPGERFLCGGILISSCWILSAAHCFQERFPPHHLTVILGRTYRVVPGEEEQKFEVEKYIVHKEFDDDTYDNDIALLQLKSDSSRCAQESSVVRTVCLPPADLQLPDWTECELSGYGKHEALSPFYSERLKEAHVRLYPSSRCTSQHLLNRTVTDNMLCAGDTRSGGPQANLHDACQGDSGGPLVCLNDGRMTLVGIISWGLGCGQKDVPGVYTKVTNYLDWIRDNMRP
For another assay, the target named is Plasminogen (Homo sapiens, UniProt P00747). Briefly: Binding affinity against plasmin.
Chain of Plasminogen (P00747 97-580 limits assumed): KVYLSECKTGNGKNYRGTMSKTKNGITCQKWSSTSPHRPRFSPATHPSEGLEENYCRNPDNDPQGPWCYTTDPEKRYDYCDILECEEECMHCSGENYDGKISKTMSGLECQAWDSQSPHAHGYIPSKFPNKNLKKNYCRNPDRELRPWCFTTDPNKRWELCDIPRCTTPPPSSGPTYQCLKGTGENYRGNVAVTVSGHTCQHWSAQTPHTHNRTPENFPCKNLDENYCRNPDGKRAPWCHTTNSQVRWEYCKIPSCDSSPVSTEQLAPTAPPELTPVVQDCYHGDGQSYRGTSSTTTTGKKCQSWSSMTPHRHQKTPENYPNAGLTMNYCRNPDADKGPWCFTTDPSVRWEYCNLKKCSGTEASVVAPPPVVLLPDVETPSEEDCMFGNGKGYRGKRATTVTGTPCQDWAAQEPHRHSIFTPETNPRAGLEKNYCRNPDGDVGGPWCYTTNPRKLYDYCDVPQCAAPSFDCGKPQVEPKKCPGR
Chain of Plasminogen (P00747 581-810 limits assumed): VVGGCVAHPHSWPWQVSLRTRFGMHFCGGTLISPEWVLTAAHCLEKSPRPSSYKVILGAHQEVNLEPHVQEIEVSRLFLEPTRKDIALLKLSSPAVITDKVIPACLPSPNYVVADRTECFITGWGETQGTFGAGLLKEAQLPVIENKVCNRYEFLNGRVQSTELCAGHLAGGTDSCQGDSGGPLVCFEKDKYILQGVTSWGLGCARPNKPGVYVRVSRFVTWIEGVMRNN
Assay [4] deals with Vitamin K-dependent protein C (Homo sapiens, UniProt P04070). The assay can be described thus: Binding affinity against activated protein C (APC).
Chain of Vitamin K-dependent protein C (P04070 43-197 limits assumed): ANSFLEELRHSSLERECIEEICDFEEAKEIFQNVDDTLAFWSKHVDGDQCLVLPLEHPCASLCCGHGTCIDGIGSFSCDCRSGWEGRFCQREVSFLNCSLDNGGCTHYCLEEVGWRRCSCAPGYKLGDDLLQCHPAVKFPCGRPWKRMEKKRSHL
Chain of Vitamin K-dependent protein C (P04070 212-461 limits assumed): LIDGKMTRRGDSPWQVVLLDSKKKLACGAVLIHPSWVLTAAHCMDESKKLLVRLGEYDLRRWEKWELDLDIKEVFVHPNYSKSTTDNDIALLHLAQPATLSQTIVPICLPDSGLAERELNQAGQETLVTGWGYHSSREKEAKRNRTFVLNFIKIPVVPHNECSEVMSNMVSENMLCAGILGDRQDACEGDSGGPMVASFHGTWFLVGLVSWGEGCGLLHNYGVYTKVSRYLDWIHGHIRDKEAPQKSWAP
For assay [5], the target named is Coagulation factor X (Rattus norvegicus) (UniProt Q63207). Briefly: Inhibitory activity against factor Xa in rat plasma.
Chain of Coagulation factor X (Rattus norvegicus) (Q63207 whole entry, looked up): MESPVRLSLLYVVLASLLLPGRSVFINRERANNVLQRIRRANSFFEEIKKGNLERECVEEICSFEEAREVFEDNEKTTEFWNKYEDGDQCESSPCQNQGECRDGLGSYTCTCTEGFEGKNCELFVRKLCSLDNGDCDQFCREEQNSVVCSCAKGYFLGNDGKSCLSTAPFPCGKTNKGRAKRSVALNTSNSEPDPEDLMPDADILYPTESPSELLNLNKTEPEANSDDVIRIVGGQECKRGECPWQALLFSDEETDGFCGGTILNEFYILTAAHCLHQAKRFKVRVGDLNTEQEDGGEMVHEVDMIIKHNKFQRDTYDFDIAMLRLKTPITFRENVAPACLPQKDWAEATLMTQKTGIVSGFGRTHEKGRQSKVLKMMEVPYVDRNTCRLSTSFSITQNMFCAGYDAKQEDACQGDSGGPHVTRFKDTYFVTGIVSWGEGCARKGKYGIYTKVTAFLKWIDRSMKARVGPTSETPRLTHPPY

Chain of Serine protease 1 (P07477 whole entry): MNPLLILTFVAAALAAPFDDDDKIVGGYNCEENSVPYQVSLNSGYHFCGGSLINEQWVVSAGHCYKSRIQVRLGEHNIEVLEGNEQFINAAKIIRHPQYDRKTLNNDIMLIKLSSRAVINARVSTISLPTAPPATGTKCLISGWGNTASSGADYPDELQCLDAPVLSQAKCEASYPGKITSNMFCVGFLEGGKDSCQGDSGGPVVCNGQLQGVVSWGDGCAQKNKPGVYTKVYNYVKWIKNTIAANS

As a reminder, the Ki is a measure of affinity in units of concentration, obtained from inhibition or displacement. A high value points to lower affinity. Consider `N=C(N)c1cccc(CN2CC[C@H](NS(=O)(=O)c3cc4c(Cl)nccc4s3)C2=O)c1`, for which the Ki at Serine protease 1 is above 2.9 µM; on Coagulation factor X [1] it was 0.039 µM; at Prothrombin, above 4 µM.
For `CCOc1ccc2cc(S(=O)(=O)N[C@H]3CCN(Cc4cccc(C(=N)N)c4)C3=O)ccc2n1` the same measures were above 2.9 µM, above 1.2 µM and above 4 µM.
Turning to `N=C(N)c1cccc(CN2CC[C@H](NS(=O)(=O)c3ccc4ccncc4c3)C2=O)c1`, the values for the Ki at Coagulation factor X [2], at Serine protease 1 and at Prothrombin were 0.51 µM, above 2.9 µM and above 4 µM, respectively.
`N=C(N)c1cccc(CN2CC[C@H](NS(=O)(=O)c3cc4cccnc4s3)C2=O)c1`: the Ki is 2.9 µM at Serine protease 1, 0.088 µM on Coagulation factor X [1] and above 4 µM at Prothrombin.
Take `N=C(N)c1ccc(O)c(CN2CC[C@H](NS(=O)(=O)c3cc4c(Cl)nccc4s3)C2=O)c1`: the Ki in assay [3] is 8.7 µM; at Serine protease 1 it was above 2.9 µM; at Plasminogen, 4.5 µM; in assay [4] it was 8 µM; on Coagulation factor X [1], 0.002 µM; at Prothrombin, 4 µM.
In the case of `N=C(N)c1ccc(O)c(CN2CC[C@H](NS(=O)(=O)c3cc4cnccc4s3)C2=O)c1`, the Ki is 8.7 µM in assay [3]; above 2.9 µM on Serine protease 1; above 7.3 µM on Plasminogen; above 18 µM in assay [4]; 0.003 µM on Coagulation factor X [1]; 2.6 µM at Prothrombin.
As to `N=C(N)c1cccc(CN2CC[C@H](NS(=O)(=O)c3ccc4cc(Cl)c(Cl)cc4c3)C2=O)c1`, the Ki on Coagulation factor X [2] is around 0.075 µM.
On to `N=C(N)c1ccc(O)c(CN2CC[C@H](NS(=O)(=O)c3cc4ncccc4s3)C2=O)c1`, for which the Ki in assay [3] was 0.36 µM; at Serine protease 1, 1 µM; at Plasminogen, 2.3 µM; in assay [4] it was 5.2 µM; on Coagulation factor X [1], 0.0007 µM; on Prothrombin, 4 µM.
With `N=C(N)c1cccc(CN2CC[C@H](NS(=O)(=O)c3cc4ccc(Cl)nc4s3)C2=O)c1`, the Ki on Coagulation factor X [2] was 0.12 µM; on Serine protease 1, above 2.9 µM; on Prothrombin it was above 4 µM.
Compound `Cc1c(S(=O)(=O)N[C@H]2CCN(Cc3cccc(C(=N)N)c3)C2=O)sc2ccc(Cl)cc12` yielded a Ki at Coagulation factor X [2] of 0.036 µM.
For `N=C(N)c1cccc(CN2CC[C@H](NS(=O)(=O)c3ccc4c(N)nccc4c3)C2=O)c1`, the values for the Ki at Coagulation factor X [2], at Serine protease 1 and at Prothrombin were 0.09 µM, above 2.9 µM and above 4 µM, respectively.
Take `N=C(N)c1ccc(O)c(CN2CC[C@H](NS(=O)(=O)c3cc4nc(Cl)ccc4s3)C2=O)c1`: the Ki in assay [3] turned out to be 2.7 µM; on Serine protease 1 it was 1.6 µM; on Plasminogen, 3.6 µM; in assay [4], 11 µM; at Coagulation factor X [1] it was 0.0015 µM; at Prothrombin it was 0.92 µM.
`N=C(N)c1ccc(N)c(CN2CC[C@H](NS(=O)(=O)c3cc4nc(Cl)ccc4s3)C2=O)c1`: the Ki in assay [3] was above 8.7 µM; at Serine protease 1, 1.8 µM; at Plasminogen, 1.5 µM; in assay [4], 4.2 µM; on Coagulation factor X [1] it was 0.003 µM; at Prothrombin it was 1.1 µM.
In the case of `N=C(N)c1cccc(CN2CC[C@H](NS(=O)(=O)c3ccc4nc(Cl)ccc4c3)C2=O)c1`, the Ki at Serine protease 1 was above 2.9 µM; on Coagulation factor X [1] it was 0.11 µM; at Prothrombin, above 4 µM.
Consider `N=C(N)c1cccc(CN2CC[C@H](NS(=O)(=O)c3cc4ncccc4s3)C2=O)c1`, for which the Ki in assay [3] was above 8.7 µM; at Serine protease 1, above 2.9 µM; at Plasminogen, above 7.3 µM; in assay [4], 12 µM; on Coagulation factor X [1], 0.026 µM; at Prothrombin it was above 4 µM.
On to `N=C(N)c1cccc(CN2CC[C@H](NS(=O)(=O)c3cc4nc(Cl)ccc4s3)C2=O)c1`, for which the Ki is above 8.7 µM in assay [3]; above 2.9 µM on Serine protease 1; 5.8 µM at Plasminogen; above 18 µM in assay [4]; 0.031 µM at Coagulation factor X [1]; 3.1 µM at Prothrombin.
With `N=C(N)c1cccc(CN2CC[C@H](NS(=O)(=O)c3ccc4cnccc4c3)C2=O)c1`, the Ki at Coagulation factor X [2] was 0.38 µM; on Serine protease 1, above 2.9 µM; at Prothrombin, above 4 µM.
Consider `N=C(N)c1cccc(CN2CC[C@H](NS(=O)(=O)c3ccc4ncccc4c3)C2=O)c1`, for which the Ki on Serine protease 1 is above 2.9 µM; at Coagulation factor X [1] it was 0.2 µM; at Prothrombin, above 4 µM.
The term IC50 denotes the midpoint of a concentration-inhibition curve. Low values mean inhibition by little substance, high ones a need for much substance. As for `N=C(N)c1ccc(O)c(CN2CC[C@H](NS(=O)(=O)c3cc4ccncc4s3)C2=O)c1`, the Ki was above 8.7 µM in assay [3]; 0.002 µM on Coagulation factor X [2]; above 2.9 µM on Serine protease 1; 6.2 µM on Plasminogen; 18 µM in assay [4]; 2 µM on Prothrombin. This compound returned an IC50 in assay [5] of 0.011 µM.
Regarding `N=C(N)c1cccc(CN2CC[C@H](NS(=O)(=O)c3ccc4nc(N)ccc4c3)C2=O)c1`, the Ki on Serine protease 1 was above 2.9 µM; at Coagulation factor X [1], 0.16 µM; at Prothrombin it was above 4 µM.
`N=C(N)c1cccc(CN2CC[C@H](NS(=O)(=O)c3ccc4ccc(N)nc4c3)C2=O)c1`: the Ki on Coagulation factor X [2] was 0.24 µM; at Serine protease 1 it was above 2.9 µM; at Prothrombin, above 4 µM.
On to `N=C(N)c1ccc(O)c(CN2CC[C@H](NS(=O)(=O)c3cc4ccnc(Cl)c4s3)C2=O)c1`, for which the Ki was 7.5 µM in assay [3]; above 2.9 µM on Serine protease 1; 7.3 µM at Plasminogen; 5.5 µM in assay [4]; 0.005 µM on Coagulation factor X [1]; 2.6 µM on Prothrombin.
For `N=C(N)c1cccc(CN2CC[C@H](NS(=O)(=O)c3ccc4ccc(Cl)nc4c3)C2=O)c1`, the values for the Ki on Coagulation factor X [2], at Serine protease 1 and at Prothrombin were 0.72 µM, above 2.9 µM and above 4 µM, respectively.
The matching figures for `COc1ccc2ccc(S(=O)(=O)N[C@H]3CCN(Cc4cccc(C(=N)N)c4)C3=O)cc2n1`: 0.48 µM, above 2.9 µM and above 4 µM.
For `N=C(N)c1cccc(CN2CC[C@H](NS(=O)(=O)c3ccc4ccnc(N)c4c3)C2=O)c1` the same measures were 0.49 µM, above 2.9 µM and above 4 µM.
The matching figures for `N=C(N)c1cccc(CN2CC[C@H](NS(=O)(=O)c3ccc4cccnc4c3)C2=O)c1`: 0.42 µM, above 2.9 µM and above 4 µM.
Take `COc1ccc2ccc(S(=O)(=O)N[C@H]3CCN(Cc4cc(C(=N)N)ccc4O)C3=O)cc2c1`: the Ki in assay [3] turned out to be 1.07 µM; on Serine protease 1, 0.305 µM; at Plasminogen it was 2.35 µM; in assay [4], 1.97 µM.
With `COc1ccc2sc(S(=O)(=O)N[C@H]3CCN(Cc4cc(C(=N)N)ccc4N)C3=O)cc2n1`, the Ki in assay [3] is above 8.7 µM; on Serine protease 1 it was 0.86 µM; at Plasminogen, above 7.3 µM; in assay [4] it was 9.5 µM; on Coagulation factor X [1], 0.005 µM; at Prothrombin, 0.21 µM.
